These results are taken from PMC5218480 (PLoS ONE, 2017).

In this assay the test system is MV-4-11 cells. Nature of the assay: Gene expression microarray analysis (Affymetrix PrimeView) and GSEA. It is filed as cell-based, human. Further details: RFU PODN (11730768_x_at) / Fold change /veh PODN (11730768_x_at) / RFU LINC00158 (11744669_a_at) / Fold change /veh LINC00158 (11744669_a_at) / RFU DUSP10 (11751237_a_at) / Fold change /veh DUSP10 (11751237_a_at) / RFU ID3 (11757404_x_at) / Fold change /veh ID3 (11757404_x_at) / RFU PLEKHG5 (11737974_s_at) / Fold change /veh PLEKHG5 (11737974_s_at) / RFU LRRC4B (11730491_at) / Fold change /veh LRRC4B (11730491_at) / RFU GIMAP4 (11747438_a_at) / Fold change /veh GIMAP4 (11747438_a_at) / RFU KRT8 (11758183_x_at) / Fold change /veh KRT8 (11758183_x_at) / RFU CNN1 (11734310_a_at) / Fold change /veh CNN1 (11734310_a_at) / RFU VPS37D (11726825_at) / Fold change /veh VPS37D (11726825_at) / RFU C10orf10 (11716522_x_at) / Fold change /veh C10orf10 (11716522_x_at) / RFU KIR2DL2 /// KIR2DL4 /// KIR2DL5A /// KIR2DL5B /// KIR2DS1 /// KIR2DS2 /// KIR2DS3 /// KIR2DS4 /// KIR3DL3 /// KIR3DL3 /// KIR3DS1 (11738374_at) / Fold change /veh KIR2DL2 /// KIR2DL4 /// KIR2DL5A /// KIR2DL5B /// KIR2DS1 /// KIR2DS2 /// KIR2DS3 /// KIR2DS4 /// KIR3DL3 /// KIR3DL3 /// KIR3DS1 (11738374_at) / RFU C1QL1 (11718748_at) / Fold change /veh C1QL1 (11718748_at) / RFU TMPRSS4 (11747572_a_at) / Fold change /veh TMPRSS4 (11747572_a_at) / RFU HAMP (11756126_x_at) / Fold change /veh HAMP (11756126_x_at) / RFU RNFT2 (11725882_a_at) / Fold change /veh RNFT2 (11725882_a_at) / RFU NR4A2 (11747474_a_at) / Fold change /veh NR4A2 (11747474_a_at) / RFU ABCC12 (11746883_a_at) / Fold change /veh ABCC12 (11746883_a_at) / RFU TMEM136 (11760407_x_at) / Fold change /veh TMEM136 (11760407_x_at) / RFU CLDN22 /// WWC2 (11732394_at) / Fold change /veh CLDN22 /// WWC2 (11732394_at) / RFU HLA-DPB1 (11760878_x_at) / Fold change /veh HLA-DPB1 (11760878_x_at) / RFU SPINT1 (11716480_a_at) / Fold change /veh SPINT1 (11716480_a_at) / RFU GAP43 (11754022_s_at) / Fold change /veh GAP43 (11754022_s_at) / RFU A4GNT (11735810_at) / Fold change /veh A4GNT (11735810_at) / RFU PRB3 (11715151_x_at) / Fold change /veh PRB3 (11715151_x_at) / RFU TUBB4B (11761932_at) / Fold change /veh TUBB4B (11761932_at) / RFU CAPN14 (11732068_a_at) / Fold change /veh CAPN14 (11732068_a_at) / RFU TMCC2 (11721928_a_at) / Fold change /veh TMCC2 (11721928_a_at) / RFU IRGQ (11745062_a_at) / Fold change /veh IRGQ (11745062_a_at) / RFU FAM174B (11720279_a_at) / Fold change /veh FAM174B (11720279_a_at) / RFU TMPRSS4 (11748680_a_at) / Fold change /veh TMPRSS4 (11748680_a_at) / RFU FAM212B (11763350_a_at) / Fold change /veh FAM212B (11763350_a_at) / RFU PLEKHG5 (11743358_a_at) / Fold change /veh PLEKHG5 (11743358_a_at) / RFU ZSCAN30 (11745921_a_at) / Fold change /veh ZSCAN30 (11745921_a_at) / RFU CMKLR1 (11741424_a_at) / Fold change /veh CMKLR1 (11741424_a_at) / RFU LOC101060620 /// MAPK8IP1 (11723275_at) / Fold change /veh LOC101060620 /// MAPK8IP1 (11723275_at) / RFU SPTSSB (11747773_x_at) / Fold change /veh SPTSSB (11747773_x_at) / RFU PRSS12 (11739890_at) / Fold change /veh PRSS12 (11739890_at) / RFU BIN1 (11741810_x_at) / Fold change /veh BIN1 (11741810_x_at) / RFU WNT11 (11732464_a_at) / Fold change /veh WNT11 (11732464_a_at) / RFU C10orf10 (11716521_a_at) / Fold change /veh C10orf10 (11716521_a_at) / RFU C5orf56 (11738089_at) / Fold change /veh C5orf56 (11738089_at) / RFU CYB561 (11721691_x_at) / Fold change /veh CYB561 (11721691_x_at) / RFU ANKRD19P (11752326_a_at) / Fold change /veh ANKRD19P (11752326_a_at) / RFU OR2T12 /// OR2T33 /// OR2T8 (11738714_s_at) / Fold change /veh OR2T12 /// OR2T33 /// OR2T8 (11738714_s_at) / RFU VCAN (11748164_a_at) / Fold change /veh VCAN (11748164_a_at) / RFU JSRP1 (11732532_at) / Fold change /veh JSRP1 (11732532_at) / RFU KRTAP10-11 (11738290_x_at) / Fold change /veh KRTAP10-11 (11738290_x_at) / RFU MYO3A (11730013_a_at) / Fold change /veh MYO3A (11730013_a_at) / RFU EBF3 (11725865_a_at) / Fold change /veh EBF3 (11725865_a_at) / RFU CAMK2N1 (11719241_x_at) / Fold change /veh CAMK2N1 (11719241_x_at) / RFU C5orf56 (11738088_a_at) / Fold change /veh C5orf56 (11738088_a_at) / RFU OLFML3 (11715873_a_at) / Fold change /veh OLFML3 (11715873_a_at) / RFU LOC100653217 /// NTM (11731650_a_at) / Fold change /veh LOC100653217 /// NTM (11731650_a_at) / RFU MAPK11 (11762145_a_at) / Fold change /veh MAPK11 (11762145_a_at) / RFU FIZ1 (11724087_x_at) / Fold change /veh FIZ1 (11724087_x_at) / RFU OASL (11726364_x_at) / Fold change /veh OASL (11726364_x_at) / RFU SOX15 (11748057_x_at) / Fold change /veh SOX15 (11748057_x_at) / RFU CD79A (11719716_a_at) / Fold change /veh CD79A (11719716_a_at) / RFU HIST1H1D (11736915_at) / Fold change /veh HIST1H1D (11736915_at) / RFU CASKIN2 (11723855_a_at) / Fold change /veh CASKIN2 (11723855_a_at) / RFU LOC730098 (11760151_x_at) / Fold change /veh LOC730098 (11760151_x_at) / RFU OR4N2 (11742367_at) / Fold change /veh OR4N2 (11742367_at) / RFU PRRT2 (11749266_a_at) / Fold change /veh PRRT2 (11749266_a_at) / RFU SNX32 (11753110_a_at) / Fold change /veh SNX32 (11753110_a_at) / RFU CDHR5 (11726645_a_at) / Fold change /veh CDHR5 (11726645_a_at) / RFU RCAN1 (11760418_a_at) / Fold change /veh RCAN1 (11760418_a_at) / RFU FAM167A (11723789_a_at) / Fold change /veh FAM167A (11723789_a_at) / RFU FAM26E (11764081_at) / Fold change /veh FAM26E (11764081_at) / RFU ISYNA1 (11749810_s_at) / Fold change /veh ISYNA1 (11749810_s_at) / RFU ACY1 (11761880_at) / Fold change /veh ACY1 (11761880_at) / RFU 11764098_at / Fold change /veh 11764098_at / RFU SAMD14 (11745864_x_at) / Fold change /veh SAMD14 (11745864_x_at) / RFU NPB (11741838_a_at) / Fold change /veh NPB (11741838_a_at) / RFU TMPRSS6 (11731388_a_at) / Fold change /veh TMPRSS6 (11731388_a_at) / RFU KRTAP10-2 (11738614_at) / Fold change /veh KRTAP10-2 (11738614_at) / RFU ARHGAP8 /// PRR5-ARHGAP8 (11727945_x_at) / Fold change /veh ARHGAP8 /// PRR5-ARHGAP8 (11727945_x_at) / RFU KRTAP5-7 /// NADSYN1 (11734609_at) / Fold change /veh KRTAP5-7 /// NADSYN1 (11734609_at) / RFU RASL12 (11751679_a_at) / Fold change /veh RASL12 (11751679_a_at) / RFU CDKN2B (11736163_a_at) / Fold change /veh CDKN2B (11736163_a_at) / RFU PRF1 (11729649_at) / Fold change /veh PRF1 (11729649_at) / RFU, ZNF638 /// ZNF638-IT1 / Fold change vs veh, ZNF638 /// ZNF638-IT1 / RFU, PANK3 / Fold change vs veh, PANK3 / RFU, SH3YL1 / Fold change vs veh, SH3YL1 / RFU, ZEB2 / Fold change vs veh, ZEB2 / RFU, NRIP1 / Fold change vs veh, NRIP1 / RFU, PTTG1IP / Fold change vs veh, PTTG1IP / RFU, CAPN2 / Fold change vs veh, CAPN2 / RFU, MED14 / Fold change vs veh, MED14 / RFU, SNORA58 / Fold change vs veh, SNORA58 / RFU, C1orf63 / Fold change vs veh, C1orf63 / RFU, LRRFIP1 / Fold change vs veh, LRRFIP1 / RFU, NDUFAF7 / Fold change vs veh, NDUFAF7 / RFU, SLC12A2 / Fold change vs veh, SLC12A2 / RFU, IBTK / Fold change vs veh, IBTK / RFU, ESF1 / Fold change vs veh, ESF1 / Fold change vs veh, TMEM50B / RFU, TAOK1 / Fold change vs veh, TAOK1 / RFU, ACBD3 / Fold change vs veh, ACBD3 / RFU, TMA16 / Fold change vs veh, TMA16 / RFU, RWDD3 / Fold change vs veh, RWDD3 / RFU, BCAT1 / Fold change vs veh, BCAT1 / RFU, EDEM3 / Fold change vs veh, EDEM3 / RFU, TMEM33 / Fold change vs veh, TMEM33 / RFU, WDR75 / Fold change vs veh, WDR75 / RFU, AHCTF1 / Fold change vs veh, AHCTF1 / RFU, TFRC / Fold change vs veh, TFRC / RFU, ZDHHC17 / Fold change vs veh, ZDHHC17 / RFU, NOM1 / Fold change vs veh, NOM1 / RFU, ARL8B / Fold change vs veh, ARL8B / RFU, ZBTB11 / Fold change vs veh, ZBTB11 / RFU, TAMM41 / Fold change vs veh, TAMM41 / RFU, KIAA1704 /// LOC100996395 / Fold change vs veh, KIAA1704 /// LOC100996395 / RFU, ING1 / Fold change vs veh, ING1 / RFU, TRMT61B / Fold change vs veh, TRMT61B / RFU, FUBP3 / Fold change vs veh, FUBP3 / RFU, TP53 / Fold change vs veh, TP53 / RFU, TNKS2 / Fold change vs veh, TNKS2 / RFU, ZFP14 / Fold change vs veh, ZFP14 / RFU, ACTR2 / Fold change vs veh, ACTR2 / RFU, PPP3R1 / Fold change vs veh, PPP3R1 / RFU, PIK3R1 / Fold change vs veh, PIK3R1 / RFU, HNRNPA1 / Fold change vs veh, HNRNPA1 / RFU, RNF170 / Fold change vs veh, RNF170 / RFU, ZNF28 / Fold change vs veh, ZNF28 / RFU, RNGTT / Fold change vs veh, RNGTT / RFU, OGT / Fold change vs veh, OGT / RFU, BRD1 / Fold change vs veh, BRD1 / RFU, MARS / Fold change vs veh, MARS / RFU, ZNF655 / Fold change vs veh, ZNF655 / RFU, FAHD1 / Fold change vs veh, FAHD1 / RFU, BDP1 / Fold change vs veh, BDP1 / RFU, LRRCC1 / Fold change vs veh, LRRCC1 / RFU, ARID1A / Fold change vs veh, ARID1A / RFU, ZNF146 / Fold change vs veh, ZNF146 / RFU, ZNF330 / Fold change vs veh, ZNF330 / RFU, GPN3 / Fold change vs veh, GPN3 / RFU, C9orf123 / Fold change vs veh, C9orf123 / RFU, N4BP2L2 / Fold change vs veh, N4BP2L2 / RFU, ARFIP1 / Fold change vs veh, ARFIP1 / RFU, FAM179B / Fold change vs veh, FAM179B / RFU, BCL10 / Fold change vs veh, BCL10 / RFU, UHRF1BP1L / Fold change vs veh, UHRF1BP1L / RFU, BET1 / Fold change vs veh, BET1 / RFU, CNOT2 / Fold change vs veh, CNOT2 / RFU, ZNF268 / Fold change vs veh, ZNF268 / Fold change vs veh, ZNF507 / RFU, DGCR2 / Fold change vs veh, DGCR2 / RFU, WDSUB1 / Fold change vs veh, WDSUB1 / Fold change vs veh, HSP90B1 /// MIR3652 / RFU, ADSS / Fold change vs veh, ADSS / RFU, GK / Fold change vs veh, GK / RFU, ZNF148 / Fold change vs veh, ZNF148 / RFU, TAF9 / Fold change vs veh, TAF9 / RFU, SLC1A5 / Fold change vs veh, SLC1A5 / RFU, SLMO2 / Fold change vs veh, SLMO2 / RFU, ABCC4 / Fold change vs veh, ABCC4 / RFU, LOC101060439 /// RAP1B / Fold change vs veh, LOC101060439 /// RAP1B / RFU, RFX7 / Fold change vs veh, RFX7 / RFU, GTPBP10 / Fold change vs veh, GTPBP10 / RFU, CNEP1R1 / Fold change vs veh, CNEP1R1 / RFU, BIVM-ERCC5 /// ERCC5 / Fold change vs veh, BIVM-ERCC5 /// ERCC5 / RFU, ILF3 / Fold change vs veh, ILF3 / RFU 11762660_at / Fold change /veh 11762660_at / RFU VCAN (11757783_s_at) / Fold change /veh VCAN (11757783_s_at) / RFU DDX43 (11728927_at) / Fold change /veh DDX43 (11728927_at) / RFU KRT8 (11758188_x_at) / Fold change /veh KRT8 (11758188_x_at) / RFU NKD1 (11759106_at) / Fold change /veh NKD1 (11759106_at) / RFU SRD5A1 (11742802_a_at) / Fold change /veh SRD5A1 (11742802_a_at) / RFU TPSAB1 /// TPSB2 (11721975_s_at) / Fold change /veh TPSAB1 /// TPSB2 (11721975_s_at) / RFU GSTM3 (11746129_a_at) / Fold change /veh GSTM3 (11746129_a_at) / RFU IL23R (11737362_x_at) / Fold change /veh IL23R (11737362_x_at) / RFU TMEM51 (11727254_a_at) / Fold change /veh TMEM51 (11727254_a_at) / RFU PIWIL2 (11732686_x_at) / Fold change /veh PIWIL2 (11732686_x_at) / RFU ORM1 (11744905_x_at) / Fold change /veh ORM1 (11744905_x_at) / RFU CCDC152 (11743942_at) / Fold change /veh CCDC152 (11743942_at) / RFU ECM1 (11717891_a_at) / Fold change /veh ECM1 (11717891_a_at) / RFU IL23R (11748794_a_at) / Fold change /veh IL23R (11748794_a_at) / RFU TNFAIP8L3 (11732012_x_at) / Fold change /veh TNFAIP8L3 (11732012_x_at) / RFU MBOAT4 (11741988_at) / Fold change /veh MBOAT4 (11741988_at) / RFU 11764193_at / Fold change /veh 11764193_at / RFU TMEM53 (11763286_at) / Fold change /veh TMEM53 (11763286_at) / RFU MAGEB2 (11727129_at) / Fold change /veh MAGEB2 (11727129_at) / RFU TMEM200A (11744735_a_at) / Fold change /veh TMEM200A (11744735_a_at) / RFU CCDC152 (11751479_a_at) / Fold change /veh CCDC152 (11751479_a_at) / RFU FAM211A (11726209_a_at) / Fold change /veh FAM211A (11726209_a_at) / RFU RGS16 (11746705_a_at) / Fold change /veh RGS16 (11746705_a_at) / RFU VCAN (11755009_s_at) / Fold change /veh VCAN (11755009_s_at) / RFU RHOB (11743442_s_at) / Fold change /veh RHOB (11743442_s_at) / RFU RGS16 (11720943_a_at) / Fold change /veh RGS16 (11720943_a_at) / RFU RGS16 (11720944_at) / Fold change /veh RGS16 (11720944_at) / RFU, VPS4B / Fold change vs veh, VPS4B / RFU, CREB1 / Fold change vs veh, CREB1 / RFU, DNAJC13 / Fold change vs veh, DNAJC13 / RFU, GNAQ / Fold change vs veh, GNAQ / RFU, CDK5R1 / Fold change vs veh, CDK5R1 / RFU, ZRANB3 / Fold change vs veh, ZRANB3 / RFU, CUL4A / Fold change vs veh, CUL4A / RFU, CCNY / Fold change vs veh, CCNY / RFU, UFL1 / Fold change vs veh, UFL1 / RFU, COG3 / Fold change vs veh, COG3 / RFU, DIAPH2 / Fold change vs veh, DIAPH2 / RFU, SKA2 / Fold change vs veh, SKA2 / RFU, AFF3 / Fold change vs veh, AFF3 / RFU, LMF1 / Fold change vs veh, LMF1 / RFU, IPO11 / Fold change vs veh, IPO11 / RFU, DFFB / Fold change vs veh, DFFB / RFU, FOXP1 / Fold change vs veh, FOXP1 / RFU, CARD8 / Fold change vs veh, CARD8 / RFU, STRN3 / Fold change vs veh, STRN3 / RFU, ADK / Fold change vs veh, ADK / RFU, RASSF2 / Fold change vs veh, RASSF2 / RFU, WIPF1 / Fold change vs veh, WIPF1 / RFU, LARP1B / Fold change vs veh, LARP1B / RFU, RASA1 / Fold change vs veh, RASA1 / RFU, RB1 / Fold change vs veh, RB1 / RFU, PPFIA1 / Fold change vs veh, PPFIA1 / RFU, MAT2A / Fold change vs veh, MAT2A / RFU, CCT5 / Fold change vs veh, CCT5 / RFU, WDR92 / Fold change vs veh, WDR92 / RFU, CUX1 / Fold change vs veh, CUX1 / RFU, TTC7A / Fold change vs veh, TTC7A / RFU, TMEM135 / Fold change vs veh, TMEM135 / RFU, DEPTOR / Fold change vs veh, DEPTOR / RFU, CPM / Fold change vs veh, CPM / RFU, DNAJB6 / Fold change vs veh, DNAJB6 / RFU, CACNA2D3 / Fold change vs veh, CACNA2D3 / RFU, DTX4 / Fold change vs veh, DTX4 / RFU, TFCP2 / Fold change vs veh, TFCP2 / RFU, GMCL1 /// GMCL1P1 / Fold change vs veh, GMCL1 /// GMCL1P1 / RFU, AEBP2 / Fold change vs veh, AEBP2 / RFU, SNHG1 /// SNORD22 /// SNORD25 /// SNORD26 /// SNORD27 /// SNORD28 /// SNORD29 /// SNORD31 / Fold change vs veh, SNHG1 /// SNORD22 /// SNORD25 /// SNORD26 /// SNORD27 /// SNORD28 /// SNORD29 /// SNORD31 / Fold change (Aza/veh), C12orf56 (ProbeSet 11735607_a_at) / Fold change (ACY-1035/veh), C12orf56 (ProbeSet 11735607_a_at) / Fold change (Aza/veh), FGFR1OP (ProbeSet 11751329_s_at) / Fold change (ACY-1035/veh), FGFR1OP (ProbeSet 11751329_s_at) / Fold change (Aza/veh), VPS36 (ProbeSet 11739960_a_at) / Fold change (ACY-1035/veh), VPS36 (ProbeSet 11739960_a_at) / RFU SYPL1 (11715823_x_at) / Fold change /veh SYPL1 (11715823_x_at) / RFU IGFBP7 (11715501_s_at) / Fold change /veh IGFBP7 (11715501_s_at) / RFU REEP3 (11722064_at) / Fold change /veh REEP3 (11722064_at) / RFU IGLL1 (11728026_x_at) / Fold change /veh IGLL1 (11728026_x_at): dose or concentration left out as unconfirmed. To be noted: MV-4-11 cells, 48 hours.

Turning to `Nc1ccc(-c2cccs2)cc1NC(=O)c1ccc2c(c1)cc(C1CC1)n2CCN1CCOCC1` [ACY-1035], the “RFU PIWIL2 (11732686_x_at)” value turned out to be 9.71 RFU.
